What was measured:
[1] = Morris water maze, wild-type mice; format: in vivo, wild-type (B6) mice
Description: Morris water maze. To examine the effects of BTA-EG4 on cognitive performance, we injected wild-type (B6) mice with BTA-EG4 daily for one week, and then began behavior testing. We continued daily injections for another week, for a total treatment course of two weeks. The Morris water maze task included training mice to locate a submerged, hidden platform using extramaze visuospatial cues. This system consists of a large, white circular pool with a Plexiglas platform painted white and submerged below the surface of the water, made opaque by the addition of white non-toxic paint. During training, the platform was hidden 14 inches from the side wall in one quadrant of the maze. The animals were gently placed at random into one of the four quadrants, separated by 90°, and facing the wall. The time required (latency) to locate the hidden platform was recorded by a blinded observer and tracked using TOPSCAN, and was limited to 90 sec. Animals failing to find the platform within 90 sec were assisted to the platform. Animals were allowed to remain on the platform for 15 sec on the first trial and 10 sec on subsequent trials. 24 hrs after the final learning trial, a probe trial of 90 sec was given. We recorded the percentage of time spent in the quadrant where the platform was previously located. As a control experiment, we tested motor impairment or visual discriminative ability. The animals were required to locate a clearly visible black platform (placed in a different location), raised above the water surface, at least 12 hrs after the last trial.

AMPAR and NMDAR subunits = experiment: Slice surface biotinylation, AMPAR and NMDAR subunits in CA1 slices; format: in vivo, mice
Description: Slice surface biotinylation. Hippocampal slices (400 μm thick) were prepared as described above. CA3 and DG regions were cut away after the slice preparation to isolate CA1. After 30 min recovery at room temperature, the slices were transferred to 30° C. for additional 30 min recovery. The slices were then transferred to ice-cold ACSF for 10 min, and subsequently to ice-cold ACSF containing 1 mg/ml biotin (EZ-Link Sulfo-NHS-SS-Biotin, Pierce) saturated with 5% CO2/95% O2 for 15 min. The slices were then washed in tris-buffered saline (TBS: 50 mM Tris, 0.9% NaCl, pH 7.4) containing 100 mM glycine 5 times for 1 min each before homogenized in ice-cold 0.2% SDS/1% Triton X-100 IPB (20 mM Na3PO4, 150 mM NaCl, 10 mM EDTA, 10 mM EGTA, 10 mM Na4P2O7, 50 mM NaF, and 1 mM Na3VO4, pH 7.4; with […] okadaic acid and 10 KIU/ml aprotinin) by 30 gentle strokes using glass-Teflon tissue homogenizers (Pyrex). The homogenates were centrifuged for 10 min at 13,200×g, 4° C. Protein concentration of the supernatant was normalized to 0.6-1.5 mg/ml. Some of the supernatants were saved as inputs, and the remaining supernatant was mixed with neutravidin slurry [1:1 in 1% Triton X-100 IPB (TX-IPB)] and rotated overnight at 4° C. The neutravidin beads were isolated by brief centrifugation at 1,000×g, and washed 3×1% TX-IPB, 3×1% TX-IPB+500 mM NaCl, followed by 2×1% TX-IPB. The biotinylated surface proteins were then eluded from the neutravidin beads by rotating at room temperature for 15 min in gel sample buffer with 2 mM DTT. The input (total homogenate) and biotinylated samples (surface fraction) were run on separate gels, and processed for immunoblot analysis using GluA1 (sc-55509, Santa Cruz), GluA2/3 (07-598, Upstate/Millipore), GluN1 (a gift from Dr. R. Huganir), GluN2A (07-632, Upstate/Millipore), and GluN2B (71-8600, Invitrogen) antibodies. NMDAR subunit blots were developed using enhanced chemifluorescence substrate (ECF™ substrate, Amersham). AMPAR blots were probed simultaneously with GluR1 and GluR2/3 antibodies followed by second antibodies linked to Cy5 and Cy3. All blots were scanned using TYPHOON™ 9400 (GE Health), and quantified using Image Quant TL software (GE Health). The signal of each sample on a blot was normalized to the average signal from the control group to obtain the % of average control values, which were compared across groups using unpaired Student's t-test.
To test whether the increase in functional excitatory synapses is via cell surface recruitment of glutamate receptors, we performed steady-state surface biotinylation using acute hippocampal slices obtained from mice injected with BTA-EG4 (30 mg/kg) or control vehicle for 2 weeks. Both the cell surface and total levels of major AMPAR subunits GluA1 and GluA2, as well as NMDAR subunits GluN1, GluN2A and GluN2B, were quantified.

soluble Aβ 40 = experiment: Aβ ELISA, 3× Tg AD mice; format: in vivo; details: 30 mg/kg daily, 2 weeks
Description: Aβ ELISA. Mouse brains were homogenized in tissue homogenization buffer containing 250 mM sucrose, 20 mM Tris base, protease, and phosphatase inhibitors. To measure soluble Aβ, DEA extraction was performed. Crude 10% homogenate was mixed with an equal volume of 0.4% diethylamine (DEA), sonicated, and ultracentrifuged for 1 hr at 100,000×g. The supernatant was collected and neutralized with 10% 0.5 M Tris, pH 6.8. Sensitive and specific ELISAs to rodent Aβ1-40 was purchased from IBL Transatlantic (Toronto, Canada) and conducted per the manufacturer's protocol.

[2] = 30 mg/kg i.p., probe trial day 5

Substance: BTA-EG4
- escape latency during training ([1]; 30 mg/kg i.p. daily): significantly reduced
- rate of platform crossing [1, 2]: significantly higher rate
- time spent in the target quadrant [1, 2]: spent more time
- path length to the escape platform ([1]; 30 mg/kg i.p., training trials): no difference
- swim speed ([1]; 30 mg/kg i.p., CTRL=117±3.1 mm/s, p<0.01): 130±3.6 mm/s
- cell surface or total expression of GluA1, GluA2, GluN1, GluN2A, GluN2B (AMPAR and NMDAR subunits; 30 mg/kg, 2 weeks): no significant change
- GluA1/β-actin ratio (AMPAR and NMDAR subunits; total homogenate, CTRL=0.96±0.10): 1.06±0.12
- GluA2/β-actin ratio (AMPAR and NMDAR subunits; total homogenate, CTRL=0.98±0.09): 1.27±0.14
- GluN1/β-actin ratio (AMPAR and NMDAR subunits; total homogenate, CTRL=0.98±0.12): 1.27±0.05
- GluN2B/β-actin ratio (AMPAR and NMDAR subunits; total homogenate, CTRL=1.02±0.11): 1.33±0.14
- GluN2A/β-actin ratio (AMPAR and NMDAR subunits; total homogenate, CTRL=1.03±0.08): 1.04±0.14
- soluble Aβ 40 levels (soluble Aβ 40; 2-3 months): decrease
- soluble Aβ 40 level (soluble Aβ 40; 6-10 months): without changes
- soluble Aβ 40 level (soluble Aβ 40; 13-16 months): none of the measured parameters were significantly altered

— patent US20160000762A1, “IMPROVING COGNITIVE FUNCTION” (THE REGENTS OF THE UNIVERSITY OF CALIFORNIA, priority 2013, published 2016)
